Patent US10294202B2, “Pyrrolidinones as herbicides” (FMC Corporation, priority 2013, dated 2019)

What was measured:
[1] = test system: wheat; assay: Test A pre-/postemergence herbicide test; type: in vivo, Triticum aestivum; conditions: Postemergence
In short: (§1)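 Visual 0–100 ratings (100 = complete control) made about 10 days after treatment, greenhouse-held plants compared with untreated controls. Treatments: postemergence sprays on one- to two-leaf plants (2–10 cm tall) and preemergence directed soil sprays after planting in loam–sand, chemicals formulated in non-phytotoxic solvent containing surfactant.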

[2] = test system: ragweed; assay: Test A pre-/postemergence herbicide test; type: in vivo, Ambrosia elatior
In short: as §1

[3] = test system: ducksalad; assay: Test B flooded paddy test; type: in vivo, Heteranthera limosa; conditions: Flood, scale of 0 to 100 where 0 is no effect and 100 is complete control
In short: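 Scored visually 0–100 (0 no effect, 100 complete control) versus controls after 13 to 15 greenhouse days. Treatment: compound added to paddy water kept 3 cm above soil, on 2-leaf-stage plants.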

[4] = test system: barnyardgrass; assay: Test C pre-/postemergence herbicide test; type: in vivo, Echinochloa crus-galli
In short: (§2)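 Greenhouse plants scored visually against untreated controls 13–15 days after treatment, 0 = no effect, 100 = complete control. Test chemicals in a non-phytotoxic solvent with surfactant were applied either to soil (loam/sand) at planting or to foliage of 1- to 4-leaf plants, 2–18 cm tall.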

[5] = test system: foxtail, giant; assay: Test C pre-/postemergence herbicide test; type: in vivo, Setaria faberii
In short: as §2

[6] = test system: blackgrass; assay: Test A postemergence herbicide test; type: in vivo, Alopecurus myosuroides
In short: (§3)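 Visual injury rating, 0 (no effect) to 100 (complete control), versus untreated controls ~10 days after treatment. Postemergence spray applied at one- to two-leaf stage, plants 2–10 cm tall, potted in loam soil/sand. Greenhouse-held.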

[7] = test system: oilseed rape; assay: Test C pre-/postemergence herbicide test; type: in vivo, Brassica napus
In short: as §2

[8] = test system: morningglory; assay: Test C pre-/postemergence herbicide test; type: in vivo, Ipomoea coccinea
In short: as §2

[9] = test system: galium; assay: Test A postemergence herbicide test; type: in vivo, Galium aparine
In short: as §3

[10] = 125 g ai/ha, 0 to 100 scale, 0 no effect, 100 complete control
[11] = 500 g ai/ha, 0 to 100 scale (0 no effect, 100 complete control)
[12] = Postemergence, 500 g ai/ha, 0 to 100 scale (0 no effect, 100 complete control)
[13] = Postemergence, 31 g ai/ha, scale 0 (no effect) to 100 (complete control)
[14] = Postemergence, 62 g ai/ha, scale 0 to 100 (0 no effect, 100 complete control)
[15] = Postemergence, 125 g ai/ha, scale 0 to 100 (0 no effect, 100 complete control)
[16] = Postemergence, 250 g ai/ha, scale 0 to 100 (0 no effect, 100 complete control)
[17] = Preemergence, 31 g ai/ha, scale 0 to 100, 0 is no effect and 100 is complete control
[18] = Preemergence, 62 g ai/ha, scale 0 to 100
[19] = Preemergence, 125 g ai/ha, scale 0 to 100 (0 no effect, 100 complete control)
[20] = 125 g ai/ha, visual rating on 0 to 100 scale (0 no effect, 100 complete control), approx. 10 days
[21] = Postemergence, 125 g ai/ha, visual rating on 0 to 100 scale (0 no effect, 100 complete control), approx. 10 days
[22] = Preemergence, 125 g ai/ha, 0 to 100 scale where 0 is no effect and 100 is complete control
[23] = Preemergence, 62 g ai/ha, scale 0 to 100 (0 no effect, 100 complete control)
[24] = 125 g ai/ha, 0 to 100 scale, 0 is no effect, 100 is complete control
[25] = Postemergence, 31 g ai/ha, scale 0 to 100 (0 no effect, 100 complete control)
[26] = Postemergence, 62 g ai/ha, scale 0 (no effect) to 100 (complete control)
[27] = Preemergence, 125 g ai/ha, scale 0 to 100

## Cc1ccccc1NC(=O)C1C(=O)NCC1c1cccc(C(F)(F)F)c1 (racemic) [Compound 109]
[1]; [10]
  Plant response rating, Wheat: 20
[1]; [11]
  Plant response rating, Wheat: 60
[2]; Postemergence, 125 g ai/ha, 0 to 100 scale, 0 no effect, 100 complete control
  Plant response rating, Ragweed: 0
[2]; [12]
  Plant response rating, Ragweed: 0
[2]; Preemergence, 125 g ai/ha, visual rating on 0 to 100 scale (0 no effect, 100 complete control)
  Ragweed plant response rating: 0
[2]; preemergence, 500 g ai/ha, 0 to 100 scale
  Plant response rating, Ragweed: 0
[3]; 1000 g ai/ha
  Plant response rating, Ducksalad: 95
[4]; [13]
  Plant response rating, Barnyardgrass: 0
[4]; [14]
  Plant response rating, Barnyardgrass: 0
[4]; [15]
  Plant response rating, Barnyardgrass: 0
[4]; [16]
  Plant response rating, Barnyardgrass: 45
[4]; [17]
  Barnyardgrass plant response rating: 70
[4]; [18]
  Plant response rating, Barnyardgrass: 85
[4]; [19]
  Plant response rating, Barnyardgrass: 95
[4]; Preemergence, 250 g ai/ha
  Plant response rating (scale of 0 to 100; 0 is no effect, 100 is complete control), Barnyardgrass: 98
[5]; [13]
  Plant response rating, Foxtail, Giant: 60
[5]; [14]
  Plant response rating, Foxtail, Giant: 15
[5]; [15]
  Plant response rating, Foxtail, Giant: 50
[5]; [16]
  Plant response rating, Foxtail, Giant: 70
[5]; [17]
  Foxtail, Giant plant response rating: 90
[5]; [18]
  Plant response rating, Foxtail, Giant: 95
[5]; [19]
  Plant response rating, Foxtail, Giant: 98
[5]; Preemergence, 250 g ai/ha
  Plant response rating (scale of 0 to 100), Foxtail, Giant: 100
[6]; [10]
  Plant response rating, Blackgrass: 50
[6]; [11]
  Plant response rating, Blackgrass: 80
[7]; [13]
  Plant response rating, Oilseed Rape: 0
[7]; [14]
  Plant response rating, Oilseed Rape: 0
[7]; [15]
  Plant response rating, Oilseed Rape: 5
[7]; [16]
  Plant response rating, Oilseed Rape: 5
[7]; [17]
  Oilseed Rape plant response rating: 0
[7]; [18]
  Plant response rating, Oilseed Rape: 0
[7]; [19]
  Plant response rating, Oilseed Rape: 5
[7]; Preemergence, 250 g ai/ha
  Plant response rating (scale of 0 to 100), Oilseed Rape: 40
[8]; [13]
  Plant response rating, Morningglory: 20
[8]; [14]
  Plant response rating, Morningglory: 0
[8]; [15]
  Plant response rating, Morningglory: 5
[8]; [16]
  Plant response rating, Morningglory: 15
[8]; [17]
  Morningglory plant response rating: 0
[8]; [18]
  Plant response rating, Morningglory: 0
[8]; [19]
  Plant response rating, Morningglory: 5
[8]; Preemergence, 250 g ai/ha
  Plant response rating (scale of 0 to 100), Morningglory: 30
[9]; [10]
  Plant response rating, Galium: 30
[9]; [11]
  Plant response rating, Galium: 60

## O=C1NCC(c2cc(F)cc(F)c2)C1C(=O)Nc1ccccc1Cl (racemic) [Compound 280]
[1]; [20]
  Plant response rating, Wheat: 0
[1]; [11]
  Plant response rating, Wheat: 0
[2]; [21]
  Plant response rating, Ragweed: 0
[2]; [12]
  Plant response rating, Ragweed: 0
[2]; [22]
  Plant response rating, Ragweed: 0
[2]; preemergence, 500 g ai/ha, 0 to 100 scale, 0 is no effect and 100 is complete control
  Plant response rating, Ragweed: 0
[3]; 500 g ai/ha
  Plant response rating, Ducksalad: 100
[4]; [17]
  Barnyardgrass plant response rating: 55
[4]; [23]
  Barnyardgrass plant response rating: 65
[4]; [19]
  Plant response rating, Barnyardgrass: 85
[4]; Preemergence, 250 g ai/ha
  Plant response rating (scale of 0 to 100; 0 is no effect, 100 is complete control), Barnyardgrass: 95
[5]; [17]
  Foxtail, Giant plant response rating: 70
[5]; [23]
  Foxtail, Giant plant response rating: 80
[5]; [19]
  Plant response rating, Foxtail, Giant: 90
[5]; Preemergence, 250 g ai/ha
  Plant response rating (scale of 0 to 100), Foxtail, Giant: 95
[6]; [24]
  Plant response rating, Blackgrass: 0
[6]; [11]
  Plant response rating, Blackgrass: 0
[7]; [17]
  Oilseed Rape plant response rating: 0
[7]; [23]
  Oilseed Rape plant response rating: 30
[7]; [19]
  Plant response rating, Oilseed Rape: 0
[7]; Preemergence, 250 g ai/ha
  Plant response rating (scale of 0 to 100), Oilseed Rape: 0
[8]; [17]
  Morningglory plant response rating: 10
[8]; [23]
  Morningglory plant response rating: 25
[8]; [19]
  Plant response rating, Morningglory: 0
[8]; Preemergence, 250 g ai/ha
  Plant response rating (scale of 0 to 100), Morningglory: 30
[9]; [24]
  Plant response rating, Galium: 0
[9]; [11]
  Plant response rating, Galium: 0

## O=C1NCC(c2cccc(OC(F)F)c2)C1C(=O)Nc1ccccc1F (stereo not shown) [Compound 323]
[1]; [20]
  Plant response rating, Wheat: 40
[1]; [11]
  Plant response rating, Wheat: 80
[2]; [21]
  Plant response rating, Ragweed: 0
[2]; [12]
  Plant response rating, Ragweed: 20
[2]; [22]
  Plant response rating, Ragweed: 20
[2]; Preemergence, 500 g ai/ha, visual rating on 0 to 100 scale (0 no effect, 100 complete control)
  Ragweed plant response rating: 80
[3]; 500 g ai/ha
  Plant response rating, Ducksalad: 100
[4]; [25]
  Plant response rating, Barnyardgrass: 0
[4]; [26]
  Plant response rating, Barnyardgrass: 10
[4]; [15]
  Plant response rating, Barnyardgrass: 35
[4]; [16]
  Plant response rating, Barnyardgrass: 70
[4]; [17]
  Barnyardgrass plant response rating: 80
[4]; [23]
  Barnyardgrass plant response rating: 85
[4]; [19]
  Plant response rating, Barnyardgrass: 98
[4]; Preemergence, 250 g ai/ha
  Plant response rating (scale of 0 to 100; 0 is no effect, 100 is complete control), Barnyardgrass: 98
[5]; [25]
  Plant response rating, Foxtail, Giant: 0
[5]; [26]
  Plant response rating, Foxtail, Giant: 0
[5]; [15]
  Plant response rating, Foxtail, Giant: 35
[5]; [16]
  Plant response rating, Foxtail, Giant: 70
[5]; [17]
  Foxtail, Giant plant response rating: 90
[5]; [23]
  Foxtail, Giant plant response rating: 95
[5]; [27]
  Plant response rating, Foxtail, Giant: 95
[5]; Preemergence, 250 g ai/ha
  Plant response rating (scale of 0 to 100), Foxtail, Giant: 98
[6]; [20]
  Plant response rating, Blackgrass: 40
[6]; [11]
  Plant response rating, Blackgrass: 60
[7]; [25]
  Plant response rating, Oilseed Rape: 0
[7]; [26]
  Plant response rating, Oilseed Rape: 0
[7]; [15]
  Plant response rating, Oilseed Rape: 0
[7]; [16]
  Plant response rating, Oilseed Rape: 0
[7]; [17]
  Oilseed Rape plant response rating: 0
[7]; [23]
  Oilseed Rape plant response rating: 10
[7]; [27]
  Plant response rating, Oilseed Rape: 70
[7]; Preemergence, 250 g ai/ha
  Plant response rating (scale of 0 to 100), Oilseed Rape: 85
[8]; [25]
  Plant response rating, Morningglory: 0
[8]; [26]
  Plant response rating, Morningglory: 25
[8]; [15]
  Plant response rating, Morningglory: 5
[8]; [16]
  Plant response rating, Morningglory: 25
[8]; [17]
  Morningglory plant response rating: 0
[8]; [23]
  Morningglory plant response rating: 0
[8]; [27]
  Plant response rating, Morningglory: 0
[8]; Preemergence, 250 g ai/ha
  Plant response rating (scale of 0 to 100), Morningglory: 30
[9]; [20]
  Plant response rating, Galium: 40
[9]; [11]
  Plant response rating, Galium: 60

## CN1CC(c2ccc(F)c(F)c2)C(C(=O)Nc2cccc(F)c2F)C1=O (stereo not shown) [Compound 303]
[1]; [20]
  Plant response rating, Wheat: 50
[1]; [11]
  Plant response rating, Wheat: 60
[2]; [21]
  Plant response rating, Ragweed: 20
[2]; [12]
  Plant response rating, Ragweed: 40
[2]; [22]
  Plant response rating, Ragweed: 0
[3]; 500 g ai/ha
  Plant response rating, Ducksalad: 100
[4]; [25]
  Plant response rating, Barnyardgrass: 10
[4]; [26]
  Plant response rating, Barnyardgrass: 60
[4]; [15]
  Plant response rating, Barnyardgrass: 70
[4]; [16]
  Plant response rating, Barnyardgrass: 70
[4]; [17]
  Barnyardgrass plant response rating: 90
[4]; [23]
  Barnyardgrass plant response rating: 95
[4]; [19]
  Plant response rating, Barnyardgrass: 95
[4]; Preemergence, 250 g ai/ha
  Plant response rating (scale of 0 to 100; 0 is no effect, 100 is complete control), Barnyardgrass: 98
[5]; [26]
  Plant response rating, Foxtail, Giant: 80
[5]; [15]
  Plant response rating, Foxtail, Giant: 85
[5]; [16]
  Plant response rating, Foxtail, Giant: 90
[5]; [17]
  Foxtail, Giant plant response rating: 90
[5]; [23]
  Foxtail, Giant plant response rating: 95
[5]; [19]
  Plant response rating, Foxtail, Giant: 98
[5]; Preemergence, 250 g ai/ha
  Plant response rating (scale of 0 to 100), Foxtail, Giant: 100
[6]; [20]
  Plant response rating, Blackgrass: 60
[6]; [11]
  Plant response rating, Blackgrass: 70
[7]; [25]
  Plant response rating, Oilseed Rape: 0
[7]; [26]
  Plant response rating, Oilseed Rape: 0
[7]; [15]
  Plant response rating, Oilseed Rape: 0
[7]; [16]
  Plant response rating, Oilseed Rape: 30
[7]; [17]
  Oilseed Rape plant response rating: 0
[7]; [23]
  Oilseed Rape plant response rating: 35
[7]; [19]
  Plant response rating, Oilseed Rape: 80
[7]; Preemergence, 250 g ai/ha
  Plant response rating (scale of 0 to 100), Oilseed Rape: 85
[8]; [25]
  Plant response rating, Morningglory: 10
[8]; [26]
  Plant response rating, Morningglory: 60
[8]; [15]
  Plant response rating, Morningglory: 0
[8]; [16]
  Plant response rating, Morningglory: 0
[8]; [17]
  Morningglory plant response rating: 0
[8]; [23]
  Morningglory plant response rating: 0
[8]; [19]
  Plant response rating, Morningglory: 15
[8]; Preemergence, 250 g ai/ha
  Plant response rating (scale of 0 to 100), Morningglory: 45
[9]; [20]
  Plant response rating, Galium: 60
[9]; [11]
  Plant response rating, Galium: 70
